From US20260125382A1, “COMPOUNDS FOR INHIBITING OR DEGRADING CDK2 AND/OR CDK9 AND MEDICINAL USE THEREOF” (KOREA RESEARCH INSTITUTE OF CHEMICAL TECHNOLOGY, priority 2022, published 2026) come the findings set out here.

The target in one experiment is T1, CDK2 (Homo sapiens, UniProt P24941).
T1 construct: endogenous in cells; host or cells: MDA-MB-231
Description: CDK protein degradation activity (Western blotting), CDK2. The note with it: MDA-MB-231 cells, 16 hours, Western blot. The experiment is classed as cell-based. Summed up: (§1)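 MDA-MB-231 cells were treated with compound at final concentrations of 100 nM, 1 μM and 10 μM, or DMSO vehicle, for 16 h. Lysates were resolved by SDS-PAGE and immunoblotted for CDK2, CDK9 and tubulin, with band intensities quantified densitometrically.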
In general terms: In western blotting, separated proteins are transferred to a membrane and probed.

A further experiment addresses T2, CDK9 (Homo sapiens, UniProt P50750).
T2 construct: endogenous in cells; host or cells: MDA-MB-231
Description: CDK protein degradation activity (Western blotting), CDK9. The experiment is classed as cell-based. To be noted: MDA-MB-231 cells, 16 hours, Western blot. In outline: as §1

T2 sequence (P50750 whole entry): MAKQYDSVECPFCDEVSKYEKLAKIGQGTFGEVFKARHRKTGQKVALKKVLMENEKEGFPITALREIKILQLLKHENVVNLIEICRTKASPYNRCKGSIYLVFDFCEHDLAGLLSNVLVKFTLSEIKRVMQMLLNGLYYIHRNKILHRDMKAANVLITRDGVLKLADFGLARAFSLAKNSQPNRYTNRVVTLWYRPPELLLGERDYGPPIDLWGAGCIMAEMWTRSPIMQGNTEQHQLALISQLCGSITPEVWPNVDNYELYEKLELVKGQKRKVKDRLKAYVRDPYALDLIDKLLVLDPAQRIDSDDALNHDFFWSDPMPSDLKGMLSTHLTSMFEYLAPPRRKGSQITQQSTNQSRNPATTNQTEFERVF

Consider `O=C1CC[C@H](N2C(=O)c3ccc(N4CCC5(CC4)CC(N4CCN(c6ccc(Nc7ncnc8c7ncn8[C@H]7C[C@@H](NC(=O)Cc8ccccc8)C7)cc6)CC4)C5)cc3C2=O)C(=O)N1` [Compound 210, N-((1s,3s)-3-(6-((4-(4-(7-(2-(2,6-dioxopiperidin-3-yl)-1,3-dioxoisoindolin-5-yl)-7-azaspiro[3.5]nonan-2-yl)piperazin-1-yl)phenyl)amino)-9H-purin-9-yl)cyclobutyl)-2-phenylacetamide], for which, on CDK2, the “Enzyme degradation CDK2 (% remaining) @ 0.1 μM” value was 30/30/30%, the “Enzyme degradation CDK2 (% remaining) @ 1 μM” value is 30/30/30% and the “Enzyme degradation CDK2 (% remaining) @ 10 μM” value is recorded as 30/30/30%. Further, on CDK9, the “Enzyme degradation CDK9 (% remaining) @ 0.1 μM” value is listed as 10%, the “Enzyme degradation CDK9 (% remaining) @ 1 μM” value was 0% and the “Enzyme degradation CDK9 (% remaining) @ 10 μM” value is on record as 0%.
On to `O=C1CC[C@H](N2C(=O)c3cccc(NCC(=O)N4CCC(CC(=O)N5CCN(c6ccc(Nc7ncnc8c7ncn8C7CC(NC(=O)Cc8ccccc8)C7)cc6)CC5)CC4)c3C2=O)C(=O)N1` (stereo partly drawn) [Compound 211, N-((1s,3s)-3-(6-((4-(4-(2-(1-((2-(2,6-dioxopiperidin-3-yl)-1,3-dioxoisoindolin-4-yl)glycyl)piperidin-4-yl)acetyl)piperazin-1-yl)phenyl)amino)-9H-purin-9-yl)cyclobutyl)-2-phenylacetamide], for which, on CDK2, the “Enzyme degradation CDK2 (% remaining) @ 0.1 μM” value came to 50%, the “Enzyme degradation CDK2 (% remaining) @ 1 μM” value was determined as 50% and the “Enzyme degradation CDK2 (% remaining) @ 10 μM” value was 40%. In addition, on CDK9, the “Enzyme degradation CDK9 (% remaining) @ 0.1 μM” value is 30/30/30%, the “Enzyme degradation CDK9 (% remaining) @ 1 μM” value is listed as 30/30/30% and the “Enzyme degradation CDK9 (% remaining) @ 10 μM” value is on record as 30/30/30%.
In the case of `O=C1CC[C@H](N2C(=O)c3cccc(OCC(=O)N4CCC(CC(=O)N5CCN(c6ccc(Nc7ncnc8c7ncn8C7CC(NC(=O)Cc8ccccc8)C7)cc6)CC5)CC4)c3C2=O)C(=O)N1` (stereo partly drawn) [Compound 212, N-((1s,3s)-3-(6-((4-(4-(2-(1-(2-((2-(2,6-dioxopiperidin-3-yl)-1,3-dioxoisoindolin-4-yl)oxy)acetyl)piperidin-4-yl)acetyl)piperazin-1-yl)phenyl)amino)-9H-purin-9-yl)cyclobutyl)-2-phenylacetamide], at CDK2, the “Enzyme degradation CDK2 (% remaining) @ 0.1 μM” value was 30%, the “Enzyme degradation CDK2 (% remaining) @ 1 μM” value is listed as 20% and the “Enzyme degradation CDK2 (% remaining) @ 10 μM” value turned out to be 10%. For the same compound, at CDK9, the “Enzyme degradation CDK9 (% remaining) @ 0.1 μM” value came to 70%, the “Enzyme degradation CDK9 (% remaining) @ 1 μM” value is on record as 30% and the “Enzyme degradation CDK9 (% remaining) @ 10 μM” value came out at 20%.
Consider `O=C1CC[C@H](N2C(=O)c3ccc(NCC(=O)N4CCC(CC(=O)N5CCN(c6ccc(Nc7ncnc8c7ncn8C7CC(NC(=O)Cc8ccccc8)C7)cc6)CC5)CC4)cc3C2=O)C(=O)N1` (stereo partly drawn) [Compound 213, N-((1s,3s)-3-(6-((4-(4-(2-(1-((2-(2,6-dioxopiperidin-3-yl)-1,3-dioxoisoindolin-5-yl)glycyl)piperidin-4-yl)acetyl)piperazin-1-yl)phenyl)amino)-9H-purin-9-yl)cyclobutyl)-2-phenylacetamide], for which, on CDK2, the “Enzyme degradation CDK2 (% remaining) @ 0.1 μM” value is given as 50%, the “Enzyme degradation CDK2 (% remaining) @ 1 μM” value is recorded as 70% and the “Enzyme degradation CDK2 (% remaining) @ 10 μM” value is listed as 50%. Also, on CDK9, the “Enzyme degradation CDK9 (% remaining) @ 0.1 μM” value turned out to be 70%, the “Enzyme degradation CDK9 (% remaining) @ 1 μM” value was found to be 30% and the “Enzyme degradation CDK9 (% remaining) @ 10 μM” value was determined as 10%.
With `O=C1CC[C@H](N2C(=O)c3ccc(N4CCC(CC(=O)N5CCN(c6ccc(Nc7ncnc8c7ncn8[C@H]7C[C@@H](NC(=O)Cc8ccccc8)C7)cc6)CC5)CC4)cc3C2=O)C(=O)N1` [Compound 216, N-((1s,3s)-3-(6-((4-(4-(2-(1-(2-(2,6-dioxopiperidin-3-yl)-1,3-dioxoisoindolin-5-yl)piperidin-4-yl)acetyl)piperazin-1-yl)phenyl)amino)-9H-purin-9-yl)cyclobutyl)-2-phenylacetamide], at CDK2, the “Enzyme degradation CDK2 (% remaining) @ 0.1 μM” value is 40%, the “Enzyme degradation CDK2 (% remaining) @ 1 μM” value is 40% and the “Enzyme degradation CDK2 (% remaining) @ 10 μM” value worked out at 50%. For the same compound, at CDK9, the “Enzyme degradation CDK9 (% remaining) @ 0.1 μM” value was 50/50/50%, the “Enzyme degradation CDK9 (% remaining) @ 1 μM” value is recorded as 50/50/50% and the “Enzyme degradation CDK9 (% remaining) @ 10 μM” value is recorded as 50/50/50%.
`O=C(COc1ccc(C2CCC(=O)NC2=O)cc1)NC[C@H]1CC[C@H](CN2CCN(c3ccc(Nc4ncnc5c4ncn5[C@H]4C[C@@H](NC(=O)Cc5ccccc5)C4)cc3)CC2)CC1` (stereo partly drawn) [Compound 217, 2-(4-(2,6-dioxopiperidin-3-yl)phenoxy)-N-(((1r,4r)-4-((4-(4-((9-((1s,3s)-3-(2-phenylacetamido)cyclobutyl)-9H-purin-6-yl)amino)phenyl)piperazin-1-yl)methyl)cyclohexyl)methyl)acetamide]: at CDK2, the “Enzyme degradation CDK2 (% remaining) @ 0.1 μM” value amounted to 80%, the “Enzyme degradation CDK2 (% remaining) @ 1 μM” value was determined as 100% and the “Enzyme degradation CDK2 (% remaining) @ 10 μM” value worked out at 50%. Also, at CDK9, the “Enzyme degradation CDK9 (% remaining) @ 0.1 μM” value was 0/0/0%, the “Enzyme degradation CDK9 (% remaining) @ 1 μM” value is 0/0/0% and the “Enzyme degradation CDK9 (% remaining) @ 10 μM” value is 0/0/0%.
Consider `O=C(COc1cccc2c1C(=O)N(C1CCC(=O)NC1=O)C2=O)NCC1CCC(CN2CCN(c3ccc(Nc4ncnc5c4ncn5C4CC(NC(=O)Cc5ccccc5)C4)cc3)CC2)CC1` (stereo not drawn) [Compound 219, 2-((2-(2,6-dioxopiperidin-3-yl)-1,3-dioxoisoindolin-4-yl)oxy)-N-(((1r,4r)-4-((4-(4-((9-((1s,3s)-3-(2-phenylacetamido)cyclobutyl)-9H-purin-6-yl)amino)phenyl)piperazin-1-yl)methyl)cyclohexyl)methyl)acetamide], for which, at CDK2, the “Enzyme degradation CDK2 (% remaining) @ 0.1 μM” value came to 80%, the “Enzyme degradation CDK2 (% remaining) @ 1 μM” value worked out at 50% and the “Enzyme degradation CDK2 (% remaining) @ 10 μM” value is 50%. For the same compound, at CDK9, the “Enzyme degradation CDK9 (% remaining) @ 0.1 μM” value turned out to be 100%, the “Enzyme degradation CDK9 (% remaining) @ 1 μM” value turned out to be 10% and the “Enzyme degradation CDK9 (% remaining) @ 10 μM” value amounted to 0%.
Regarding `O=C(CNc1ccc2c(c1)C(=O)N(C1CCC(=O)NC1=O)C2=O)NC[C@H]1CC[C@H](CN2CCN(c3ccc(Nc4ncnc5c4ncn5[C@H]4C[C@@H](NC(=O)Cc5ccccc5)C4)cc3)CC2)CC1` (stereo partly drawn) [Compound 220, 2-((2-(2,6-dioxopiperidin-3-yl)-1,3-dioxoisoindolin-5-yl)amino)-N-(((1r,4r)-4-((4-(4-((9-((1s,3s)-3-(2-phenylacetamido)cyclobutyl)-9H-purin-6-yl)amino)phenyl)piperazin-1-yl)methyl)cyclohexyl)methyl)acetamide], at CDK2, the “Enzyme degradation CDK2 (% remaining) @ 0.1 μM” value is 80%, the “Enzyme degradation CDK2 (% remaining) @ 1 μM” value amounted to 80% and the “Enzyme degradation CDK2 (% remaining) @ 10 μM” value was determined as 60%. In addition, on CDK9, the “Enzyme degradation CDK9 (% remaining) @ 0.1 μM” value amounted to 40%, the “Enzyme degradation CDK9 (% remaining) @ 1 μM” value worked out at 0% and the “Enzyme degradation CDK9 (% remaining) @ 10 μM” value was found to be 0%.
As for `O=C(COc1ccc2c(c1)C(=O)N(C1CCC(=O)NC1=O)C2=O)NC[C@H]1CC[C@H](CN2CCN(c3ccc(Nc4ncnc5c4ncn5[C@H]4C[C@@H](NC(=O)Cc5ccccc5)C4)cc3)CC2)CC1` (stereo partly drawn) [Compound 221, 2-((2-(2,6-dioxopiperidin-3-yl)-1,3-dioxoisoindolin-5-yl)oxy)-N-(((1r,4r)-4-((4-(4-((9-((1s,3s)-3-(2-phenylacetamido)cyclobutyl)-9H-purin-6-yl)amino)phenyl)piperazin-1-yl)methyl)cyclohexyl)methyl)acetamide], on CDK2, the “Enzyme degradation CDK2 (% remaining) @ 0.1 μM” value is reported as 100/100/100%, the “Enzyme degradation CDK2 (% remaining) @ 1 μM” value was 100/100/100% and the “Enzyme degradation CDK2 (% remaining) @ 10 μM” value was 100/100/100%. Also, on CDK9, the “Enzyme degradation CDK9 (% remaining) @ 0.1 μM” value was determined as 100%, the “Enzyme degradation CDK9 (% remaining) @ 1 μM” value is 60% and the “Enzyme degradation CDK9 (% remaining) @ 10 μM” value is given as 0%.
For `O=C1CC[C@H](N2C(=O)c3cccc(NC[C@H]4CC[C@H](CN5CCN(c6ccc(Nc7ncnc8c7ncn8[C@H]7C[C@@H](NC(=O)Cc8ccccc8)C7)cc6)CC5)CC4)c3C2=O)C(=O)N1` [Compound 222, N-((1s,3s)-3-(6-((4-(4-(((1r,4r)-4-(((2-(2,6-dioxopiperidin-3-yl)-1,3-dioxoisoindolin-4-yl)amino)methyl)cyclohexyl)methyl)piperazin-1-yl)phenyl)amino)-9H-purin-9-yl)cyclobutyl)-2-phenylacetamide], on CDK2, the “Enzyme degradation CDK2 (% remaining) @ 0.1 μM” value is listed as 100/100/100%, the “Enzyme degradation CDK2 (% remaining) @ 1 μM” value was 100/100/100% and the “Enzyme degradation CDK2 (% remaining) @ 10 μM” value was 100/100/100%. In addition, on CDK9, the “Enzyme degradation CDK9 (% remaining) @ 0.1 μM” value is given as 70%, the “Enzyme degradation CDK9 (% remaining) @ 1 μM” value is given as 70% and the “Enzyme degradation CDK9 (% remaining) @ 10 μM” value is 80%.
As to `O=C1CC[C@@H](c2cccc(OCC(=O)N3CCC(CN4CCN(c5ccc(Nc6ncnc7c6ncn7C6CC(NC(=O)Cc7ccccc7)C6)cc5)CC4)CC3)c2)C(=O)N1` (stereo partly drawn) [Compound 225, N-((1s,3s)-3-(6-((4-(4-((1-(2-(3-(2,6-dioxopiperidin-3-yl)phenoxy)acetyl)piperidin-4-yl)methyl)piperazin-1-yl)phenyl)amino)-9H-purin-9-yl)cyclobutyl)-2-phenylacetamide], at CDK2, the “Enzyme degradation CDK2 (% remaining) @ 0.1 μM” value was 10%, the “Enzyme degradation CDK2 (% remaining) @ 1 μM” value was 20% and the “Enzyme degradation CDK2 (% remaining) @ 10 μM” value was found to be 40%. At CDK9, the “Enzyme degradation CDK9 (% remaining) @ 0.1 μM” value was 30%, the “Enzyme degradation CDK9 (% remaining) @ 1 μM” value was determined as 0% and the “Enzyme degradation CDK9 (% remaining) @ 10 μM” value is 0%.
